PMC10709440, “High-throughput ligand profile characterization in novel cell lines expressing seven heterologous insect olfactory receptors for the detection of volatile plant biomarkers” (Scientific Reports, 2023)
“And” between values parts separate entries of the source, which are not always exact repeats. Identical values can stand only once. Like-named read-outs stand apart in the source and are kept apart here.

How the values were obtained:
[1] = target: T1, Drosophila OR10a (Drosophila melanogaster, UniProt Q9VYZ1); assay: Calcium ion fluorescence (GCaMP6) assay, OR10a stable HEK293 cell line; assay type: cell-based
T1 construct: expressed in transfected cells
T1 sequence (Q9VYZ1 1-406): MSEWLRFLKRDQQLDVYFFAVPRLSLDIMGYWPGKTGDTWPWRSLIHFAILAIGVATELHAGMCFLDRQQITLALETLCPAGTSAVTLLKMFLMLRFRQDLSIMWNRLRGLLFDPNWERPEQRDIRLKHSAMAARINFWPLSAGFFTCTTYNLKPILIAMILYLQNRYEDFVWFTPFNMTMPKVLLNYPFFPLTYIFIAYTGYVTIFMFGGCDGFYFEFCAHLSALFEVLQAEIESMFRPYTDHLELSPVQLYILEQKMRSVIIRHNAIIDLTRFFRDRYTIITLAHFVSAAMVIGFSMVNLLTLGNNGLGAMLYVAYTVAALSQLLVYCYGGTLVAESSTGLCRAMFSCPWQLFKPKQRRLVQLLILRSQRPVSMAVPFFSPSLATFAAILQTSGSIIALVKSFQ
T1 sequence (Q9VNB5 1-486 partner): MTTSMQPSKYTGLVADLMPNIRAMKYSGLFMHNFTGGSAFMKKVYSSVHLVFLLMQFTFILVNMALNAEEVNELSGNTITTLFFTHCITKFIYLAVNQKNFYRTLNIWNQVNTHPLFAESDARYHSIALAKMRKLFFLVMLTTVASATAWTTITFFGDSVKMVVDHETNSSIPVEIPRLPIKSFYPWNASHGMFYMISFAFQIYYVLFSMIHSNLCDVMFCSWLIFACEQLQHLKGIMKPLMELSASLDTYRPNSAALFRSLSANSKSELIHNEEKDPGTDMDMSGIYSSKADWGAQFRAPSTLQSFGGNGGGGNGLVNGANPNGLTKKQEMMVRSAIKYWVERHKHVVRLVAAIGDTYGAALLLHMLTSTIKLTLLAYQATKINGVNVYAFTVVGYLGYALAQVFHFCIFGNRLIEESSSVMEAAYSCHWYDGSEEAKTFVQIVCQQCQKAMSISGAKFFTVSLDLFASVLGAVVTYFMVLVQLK
Outline: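 Responses are VUAA1-normalized ΔF: each VOC-evoked calcium signal, (FMAX−F0)/F0 over 30 s after injection, divided by the same line's mean 50 µM VUAA1 response. Cells were doxycycline-induced HEK293 with GCaMP6 and the cognate Drosophila OR, in HEPES buffer pH 7.3; ligands tested 0.01–100 μM.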

[2] = target: T2, Drosophila OR85b (Drosophila melanogaster, UniProt Q9VHQ7); assay: Calcium ion fluorescence (GCaMP6) assay, OR85b stable HEK293 cell line; assay type: cell-based; conditions: for activation at 1 µM / activation at 10 µM / activation at 100 µM: HEK293, read-out: OR85b response (VUAA1-normalized response); for Average response: OR85b cell line, VUAA1-normalized response, mean of biological replicates
T2 construct: expressed in transfected cells
T2 sequence (Q9VHQ7 1-390): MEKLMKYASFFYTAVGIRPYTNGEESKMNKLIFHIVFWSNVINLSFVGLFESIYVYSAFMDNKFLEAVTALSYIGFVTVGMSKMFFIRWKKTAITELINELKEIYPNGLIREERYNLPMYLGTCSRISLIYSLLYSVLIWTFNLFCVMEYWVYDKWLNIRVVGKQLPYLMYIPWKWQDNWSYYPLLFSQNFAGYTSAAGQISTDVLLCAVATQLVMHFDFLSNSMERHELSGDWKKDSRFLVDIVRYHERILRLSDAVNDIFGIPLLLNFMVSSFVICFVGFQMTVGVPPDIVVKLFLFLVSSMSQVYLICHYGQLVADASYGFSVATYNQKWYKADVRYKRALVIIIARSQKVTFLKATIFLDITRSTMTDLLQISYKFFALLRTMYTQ
T2 sequence (Q9VNB5 1-486 partner): T1 sequence (Q9VNB5 1-486 partner)
Description: These VUAA1 normalized ∆F values were used to compare the different receptors and ligands.
The concentration-dependent effect of the reference ligands on their cognate cell lines was examined in more detail. Twelve different ligand concentrations were measured on each cell line in an overall 0.01 μM to 100 μM concentration range with 5 repetitions with three technical replicates each time.
Twelve thousand to 18,000 cells were plated into each well of a black wall, transparent bottom 384-well microplate (Greiner) 48 h or 72 h before the measurements and were simultaneously treated with 1 μg/mL doxycycline. […] The plate has 24 columns, thus we could record responses in up to eight different cell lines in each plate. On the day of the experiment, the growth medium was replaced with 20 µL assay buffer/well (140 mM NaCl, 5 mM KCl, 2 mM CaCl2, 1 mM MgCl2, 5 mM HEPES-Na, 20 mM glucose, pH 7.3, 340 mOsm). […] Baseline fluorescence (F0) was recorded for 5 s, after which 7 µL VOC buffer (140 mM NaCl, 5 mM KCl, 2 mM CaCl2, 1 mM MgCl2, 5 mM HEPES-Na, 31 mM glucose, 0.1% DMSO, pH 7.3, 340 mOsm) was injected into each well in one row and the fluorescence response was recorded for an additional 30 s, at a rate of one read/sec. VOC solutions (VOC buffer with 4× concentration of the final measured VOC concentration, 9 µL/well was injected) were measured on the same wells in a second round with the same protocol. Each individual concentration of a specific VOC sample was recorded in three wells for the same cell line on the same microplate. The raw data were exported in xls file format, F0 and FMAX values, and the fluorescence intensity changes (∆F) were calculated in Excel (Microsoft) (Supplementary file Data summary.xlsx) using the following equation: ΔF=FMAX-F0/F0 (see also Fig. 1C). On each plate, we recorded the response of each cell line to 50 µM VUAA1. The average of these ∆F values of each cell line were used to calculate the VUAA1-normalized values for the rest of the plate, by dividing VOC response ∆F values by the average VUAA1 response ∆F value of the corresponding OR cell line. Each VOC-OR combination was measured three times as technical replicates. […] The average of these replicates were used as one ∆F and VUAA1-normalized ∆F in the following analysis.
In the next rows we tested the reference VOCs (or other VOCs known to activate the corresponding cell lines), in order to test if all cell lines are responsive. The remaining rows were used to test VOCs with unknown effect.
The recorded FMAX, F0, ∆F, VUAA1-normalized ∆F values, as well as the OR name, the name of the tested sample, and the final concentration for each well were copied into supplementary file Data summary.xlsx, that was used to summarize all the plates recorded. Here, the averages of the measurements were calculated for each receptor-VOC-concentration combination.

[3] = HEK293, 1 μM VOC, 50 μM VUAA1 = 1, responses not exceeding 0.05 considered 0, read-out: OR10a Average response (VUAA1-normalized)
[4] = HEK293, 10 μM VOC, 50 μM VUAA1 = 1, responses not exceeding 0.05 considered 0, read-out: OR10a Average response (VUAA1-normalized)
[5] = HEK293, 100 μM VOC, 50 μM VUAA1 = 1, responses not exceeding 0.05 considered 0, read-out: OR10a Average response (VUAA1-normalized)
[6] = HEK293, read-out: OR10a response (VUAA1-normalized response), VOC concentration 1 μM
[7] = HEK293, read-out: OR10a response (VUAA1-normalized response), VOC concentration 10 μM
[8] = HEK293, read-out: OR10a response (VUAA1-normalized response), VOC concentration 100 μM
[9] = concentration 1, normalized fluorescence change, values below 0.05 threshold given as 0
[10] = concentration 10, normalized fluorescence change, values below 0.05 threshold given as 0
[11] = concentration 100, normalized fluorescence change, values below 0.05 threshold given as 0
[12] = ligand concentration 1 (unit not given), threshold 0.05, below shown as 0
[13] = ligand concentration 10 (unit not given), threshold 0.05, below shown as 0
[14] = ligand concentration 100 (unit not given), threshold 0.05, below shown as 0

Row | Compound | activation at 1 µM [1, 3] | activation at 10 µM [1, 4] | activation at 100 µM [1, 5] | activation at 1 µM [1, 6] | activation at 10 µM [1, 7] | activation at 100 µM [1, 8] | activation at 1 µM [2] | activation at 10 µM [2] | activation at 100 µM [2] | Average response ([2]; cc. 1 µM) | Average response ([2]; cc. 10 µM) | Average response ([2]; cc. 100 µM) | DF norm AVERAGE OR85b [2, 9] | DF norm AVERAGE OR85b [2, 10] | DF norm AVERAGE OR85b [2, 11] | other results
1 | Cc1cccc(O)c1 [3-methylphenol] | 9% | 6% | 13% | 9% | 6% | 13% | 0% | 0% | 0% | 0.0267 | 0.0173 | 0.02 | 0 | 0 | 0 | 
2 | CCCCCCCCC(CO)CCCCCC (stereo not shown) [2-hexyl-1-decanol] | 15% | 11% | 19% | 15% | 11% | 19% | 13% | 7% | 8% | 0.13 | 0.07 | 0.08 | 0.1336 | 0.06997 | 0.07977 | DF norm AVERAGE OR10a [1]: 0.1461 and 0.1055 and 0.1938
3 | CC(=O)c1ccccc1 [acetophenone] | 4% | 0% | 24% | 0% | 0% | 24% | 0% | 0% | 0% | 0.00 | 0.00 | 0.00 |  |  |  | DF norm AVERAGE OR10a [1, 12]: 0; DF norm AVERAGE OR10a [1, 13]: 0; DF norm AVERAGE OR10a [1, 14]: 0.2367; DF norm AVERAGE OR85b [2, 12]: 0; DF norm AVERAGE OR85b [2, 13]: 0; DF norm AVERAGE OR85b [2, 14]: 0
